Measured values as given in patent US20260132132A1, “3A,4,5,6-TETRAHYDRO-1 H-PYRAZOLO[3,4-C]PYRIDIN-7(7AH)-ONE DERIVATIVES AS FACTOR XIIA INHIBITORS” (KALVISTA PHARMACEUTICALS LIMITED, priority 2022, published 2026).

Tests used:
FXa = FXa (Homo sapiens, UniProt P00742); test: Related protease inhibition: FXa, fluorogenic substrate; assay type: biochemical; settings: fluorogenic substrate at Km, 25° C., H1-H3 = % activity at 40 μM; for activity at 40 µM: read-out: IC50 (human FXa) nM
Experimental: (§1) Human serine protease enzyme Plasma Kallikrein, KLK1, FXa, Plasmin, Thrombin and Trypsin were assayed for enzymatic activity using an appropriate fluorogenic substrate at Km concentration, FXIa at fixed substrate concentration of 100 μM and various concentrations of the test compound.

[1] = target: T1, Human Factor XIIa (hFXIIa) (Homo sapiens, UniProt P00748); test: Determination of Human Factor XIIa (hFXIIa) inhibition, fluorogenic substrate IC50 assay; assay type: biochemical; settings: fluorogenic substrate H-DPro-Phe-Arg-AFC at Km, 25° C., read-out: Human FXIIa IC50
T1 construct: purchased Enzyme Research Laboratories
T1 sequence (P00748 373-615 limits assumed): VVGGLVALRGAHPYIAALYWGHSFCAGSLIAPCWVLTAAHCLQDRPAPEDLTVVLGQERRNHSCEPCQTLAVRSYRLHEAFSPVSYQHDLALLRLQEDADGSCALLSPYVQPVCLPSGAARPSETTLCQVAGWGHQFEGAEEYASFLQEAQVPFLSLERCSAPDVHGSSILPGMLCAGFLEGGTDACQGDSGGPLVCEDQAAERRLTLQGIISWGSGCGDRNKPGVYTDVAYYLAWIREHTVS
T1 sequence (P00748 20-372 partner limits assumed): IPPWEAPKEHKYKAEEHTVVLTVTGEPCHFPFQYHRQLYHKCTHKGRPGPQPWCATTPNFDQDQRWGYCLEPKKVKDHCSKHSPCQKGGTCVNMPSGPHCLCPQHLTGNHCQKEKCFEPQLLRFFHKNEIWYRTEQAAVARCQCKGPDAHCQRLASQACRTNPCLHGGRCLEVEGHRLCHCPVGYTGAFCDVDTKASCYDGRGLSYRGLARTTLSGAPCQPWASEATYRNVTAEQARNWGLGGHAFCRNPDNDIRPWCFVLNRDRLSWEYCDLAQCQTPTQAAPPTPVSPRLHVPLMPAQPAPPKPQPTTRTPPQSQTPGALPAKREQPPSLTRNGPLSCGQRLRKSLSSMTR
Experimental: Determination of Human Factor XIIa (hFXIIa) inhibition
The Km for the cleavage of the substrate by hFXIIa was determined by standard transformation of the Michaelis-Menten equation, with subsequent inhibition assays performed at substrate Km concentration.

[2] = Pharmacokinetics following a single intravenous dose and a single oral dose in rats; assay type: in vivo; settings: rat, male Sprague-Dawley rats, single iv dose (nominal 1 mg/kg) and single oral dose (nominal 5 mg/kg) in 10% DMSO/10% Cremophor EL/80% SWFI, plasma by LCMS, Phoenix WinNonlin; for bioavailability: read-out: F % (oral bioavailability); for half-life: route for T½ not stated
Experimental: Pharmacokinetic studies of the compounds in Table 10 were performed to assess the pharmacokinetics following a single intravenous dose and a single oral dose in male Sprague-Dawley rats. Two rats were given a single intravenous dose of 1 ml/kg of a nominal 1 mg/ml (1 mg/kg) composition of test compound in 10% DMSO/10% Cremophor EL/80% SWFI vehicle. Two rats were given a single oral dose of 5 mL/kg of a nominal 1 mg/ml (5 mg/kg) composition of test compound in 10% DMSO/10% Cremophor EL/80% SWFI vehicle.
Following intravenous dosing, blood samples were collected over a period of 12 h. Sample times were 2, 5, 15 and 30 min then 1, 2, 4, 6, and 12 h. Following oral dosing, blood samples were collected over a period of 24 h. Sample times were 5, 15 and 30 min then 1, 2, 4, 6, 8, 12 and 24 h.
Following collection, blood samples were centrifuged and the plasma fraction analysed for concentration of test compound by LCMS. Oral bioavailability and half-life calculations from these studies were obtained using Phoenix WinNonlin (v8.0) and are shown below: […]

Thrombin = Thrombin (Homo sapiens, UniProt P00734); test: Related protease inhibition: Thrombin, fluorogenic substrate; assay type: biochemical; settings: fluorogenic substrate at Km, 25° C., H1-H3 = % activity at 40 μM; for activity at 40 µM: read-out: IC50 (human thrombin) nM
Experimental: as §1

Chain of FXa (P00742 235-488 limits assumed): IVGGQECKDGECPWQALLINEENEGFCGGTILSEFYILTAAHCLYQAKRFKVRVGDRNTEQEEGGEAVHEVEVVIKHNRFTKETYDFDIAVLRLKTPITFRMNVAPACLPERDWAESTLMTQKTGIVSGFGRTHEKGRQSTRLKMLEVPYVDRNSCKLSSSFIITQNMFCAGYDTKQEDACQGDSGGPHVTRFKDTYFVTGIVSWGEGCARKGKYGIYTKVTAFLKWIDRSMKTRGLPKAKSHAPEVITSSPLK
Chain of FXa (P00742 41-179 partner limits assumed): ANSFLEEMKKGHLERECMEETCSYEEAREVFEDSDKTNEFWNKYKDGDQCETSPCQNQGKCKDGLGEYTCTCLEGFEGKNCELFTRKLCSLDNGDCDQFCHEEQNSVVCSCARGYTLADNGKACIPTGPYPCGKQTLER

## CN1CCc2ccc(N3CCc4c(C(=O)N[C@H](CO)c5ccccc5)nn(-c5cccc(Cl)c5)c4C3=O)cc2C1 [Example 1024, (S)-1-(3-Chlorophenyl)-N-(2-hydroxy-1-phenylethyl)-6-(2-methyl-1,2,3,4-tetrahydroisoquinolin-7-yl)-7-oxo-4,5,6,7-tetrahydro-1H-pyrazolo[3,4-c]pyridine-3-carboxamide]
FXa
  IC50: 1 to 3 µM
[1]
  IC50: 0.1 to 0.3 µM
[2]
  bioavailability: 36%
  half-life: 5.47 h

## O=C(NCC1CC1)c1nn(-c2cccc(Cl)c2)c2c1CCN(c1ccc3c(c1)CN(CCO)CC3)C2=O [Example 1055, 1-(3-Chlorophenyl)-N-(cyclopropylmethyl)-6-(2-(2-hydroxyethyl)-1,2,3,4-tetrahydroisoquinolin-7-yl)-7]
FXa
  IC50: > 40 µM
[1]
  IC50: 0.01 to 0.1 µM
[2]
  bioavailability: 55%
  half-life: 4.62 h

## Cc1cc(C)c(CNC(=O)c2nn(-c3cccc(Cl)c3)c3c2CCN(c2ccc4c(c2)CN(CCO)CC4)C3=O)cn1 [Example 1128, 1-(3-Chlorophenyl)-N-((4,6-dimethylpyridin-3-yl)methyl)-6-(2-(2-hydroxyethyl)-1,2,3,4-tetrahydroisoquinolin-7-yl)-7-oxo-4,5,6,7-tetrahydro-1H-pyrazolo[3,4-c]pyridine-3-carboxamide]
FXa
  IC50: 10 to 40 µM
[1]
  IC50: 0.01 to 0.1 µM
[2]
  bioavailability: 27%
  half-life: 4.55 h

## CN1CCc2ccc(N3CCc4c(C(=O)NCC5CC5)nn(-c5cccc(Cl)c5)c4C3=O)cc2C1=O [Example 1149, 1-(3-chlorophenyl)-N-(cyclopropylmethyl)-6-(2-methyl-1-oxo-1,2,3,4-tetrahydroisoquinolin-7-yl)-7-oxo-4,5,6,7-tetrahydro-1H-pyrazolo[3,4-c]pyridine-3-carboxamide]
FXa
  IC50: > 40 µM
[1]
  IC50: 0.3 to 1 µM
[2]
  bioavailability: 56%
  half-life: 2.22 h

## Cc1cc(CNC(=O)c2nn(-c3cccc(Cl)c3)c3c2CCN(c2ccc4c(c2)C(=O)N(CCO)CC4)C3=O)nn1C [Example 1222, 1-(3-chlorophenyl)-N-((1,5-dimethyl-1H-pyrazol-3-yl)methyl)-6-(2-(2-hydroxyethyl)-1-oxo-1,2,3,4-tetrahydroisoquinolin-7-yl)-7-oxo-4,5,6,7-tetrahydro-1H-pyrazolo[3,4-c]pyridine-3-carboxamide]
[1]
  IC50: 0.01 to 0.1 µM
[2]
  bioavailability: 5%
  half-life: 0.583 h

## CN1CCOc2ccc(N3CCc4c(C(=O)NCC5CC5)nn(-c5cccc(Cl)c5F)c4C3=O)cc2C1=O [Example 2046, 1-(3-chloro-2-fluorophenyl)-N-(cyclopropylmethyl)-6-(4-methyl-5-oxo-2,3,4,5-tetrahydrobenzo[f][1,4]oxazepin-7-yl)-7-oxo-4,5,6,7-tetrahydro-1H-pyrazolo[3,4-c]pyridine-3-carboxamide]
FXa
  activity at 40 µM: > 80%
Thrombin
  activity at 40 µM: > 80%
[1]
  IC50: 0.01 to 0.1 µM

## CN1CCc2ccc(N3CCc4cnn(-c5cc(Cl)cc(CN)c5)c4C3=O)cc2C1=O [Example 2047, 7-(1-(3-(aminomethyl)-5-chlorophenyl)-7-oxo-1,4,5,7-tetrahydro-6H-pyrazolo[3,4-c]pyridin-6-yl)-2-methyl-3,4-dihydroisoquinolin-1(2H)-one]
FXa
  activity at 40 µM: > 80%
Thrombin
  activity at 40 µM: > 80%
[1]
  IC50: 10 to 40 µM

## CN1CCOc2ccc(N3CCc4c(C(=O)NC56CC(O)(C5)C6)nn(-c5cccc(Cl)c5F)c4C3=O)cc2C1=O [Example 2050, 1-(3-chloro-2-fluorophenyl)-N-(3-hydroxybicyclo[1.1.1]pentan-1-yl)-6-(4-methyl-5-oxo-2,3,4,5-tetrahydrobenzo[f][1,4]oxazepin-7-yl)-7-oxo-4,5,6,7-tetrahydro-1H-pyrazolo[3,4-c]pyridine-3-carboxamide]
FXa
  activity at 40 µM: 20 to 80%
Thrombin
  activity at 40 µM: 20 to 80%
[1]
  IC50: 0.01 to 0.1 µM

## CCNC(=O)c1nn(-c2cc(C)cc(Cl)c2)c2c1CCN(c1ccc3c(c1)C(=O)N(C)CC3)C2=O [Example 2051, 1-(3-chloro-5-methylphenyl)-N-ethyl-6-(2-methyl-1-oxo-1,2,3,4-tetrahydroisoquinolin-7-yl)-7-oxo-4,5,6,7-tetrahydro-1H-pyrazolo[3,4-c]pyridine-3-carboxamide]
FXa
  activity at 40 µM: 20 to 80%
Thrombin
  activity at 40 µM: > 80%
[1]
  IC50: 0.3 to 1 µM

## CCNC(=O)c1nn(-c2cccc(Cl)c2CO)c2c1CCN(c1ccc3c(c1)C(=O)N(C)CC3)C2=O [Example 2052, 1-(3-chloro-2-(hydroxymethyl)phenyl)-N-ethyl-6-(2-methyl-1-oxo-1,2,3,4-tetrahydroisoquinolin-7-yl)-7-oxo-4,5,6,7-tetrahydro-1H-pyrazolo[3,4-c]pyridine-3-carboxamide]
FXa
  activity at 40 µM: > 80%
Thrombin
  activity at 40 µM: > 80%
[1]
  IC50: 10 to 40 µM

## CN1CCOc2ccc(N3CCc4c(C(=O)N[C@H](CO)C5CC5)nn(-c5cccc(Cl)c5F)c4C3=O)cc2C1=O [Example 2053, (S)-1-(3-chloro-2-fluorophenyl)-N-(1-cyclopropyl-2-hydroxyethyl)-6-(4-methyl-5-oxo-2,3,4,5-tetrahydrobenzo[f][1,4]oxazepin-7-yl)-7-oxo-4,5,6,7-tetrahydro-1H-pyrazolo[3,4-c]pyridine-3-carboxamide]
FXa
  activity at 40 µM: 20 to 80%
Thrombin
  activity at 40 µM: > 80%
[1]
  IC50: 0.01 to 0.1 µM

## CCNC(=O)c1nn(-c2ccc(O)c(Cl)c2)c2c1CCN(c1ccc3c(c1)C(=O)N(C)CC3)C2=O [Example 2054, 1-(3-chloro-4-hydroxyphenyl)-N-ethyl-6-(2-methyl-1-oxo-1,2,3,4-tetrahydroisoquinolin-7-yl)-7-oxo-4,5,6,7-tetrahydro-1H-pyrazolo[3,4-c]pyridine-3-carboxamide]
FXa
  activity at 40 µM: > 80%
Thrombin
  activity at 40 µM: > 80%
[1]
  IC50: 3 to 10 µM

## CN1CCc2ccc(N3CCc4c(C(=O)NCC(=O)O)nn(-c5cc(Cl)cc(CN)c5)c4C3=O)cc2C1=O [Example 2056, (1-(3-(aminomethyl)-5-chlorophenyl)-6-(2-methyl-1-oxo-1,2,3,4-tetrahydroisoquinolin-7-yl)-7-oxo-4,5,6,7-tetrahydro-1H-pyrazolo[3,4-c]pyridine-3-carbonyl)glycine]
FXa
  activity at 40 µM: 20 to 80%
Thrombin
  activity at 40 µM: > 80%
[1]
  IC50: 0.01 to 0.1 µM

## CCNC(=O)c1nn(-c2ccc(Cl)c(C)c2)c2c1CCN(c1ccc3c(c1)C(=O)N(C)CC3)C2=O [Example 2057, 1-(4-chloro-3-methylphenyl)-N-ethyl-6-(2-methyl-1-oxo-1,2,3,4-tetrahydroisoquinolin-7-yl)-7-oxo-4,5,6,7-tetrahydro-1H-pyrazolo[3,4-c]pyridine-3-carboxamide]
FXa
  activity at 40 µM: 20 to 80%
Thrombin
  activity at 40 µM: 20 to 80%
[1]
  IC50: 1 to 3 µM

## CCNC(=O)c1nn(-c2cc(Cl)cc(COC)c2)c2c1CCN(c1ccc3c(c1)C(=O)N(C)CC3)C2=O [Example 2058, 1-(3-chloro-5-(methoxymethyl)phenyl)-N-ethyl-6-(2-methyl-1-oxo-1,2,3,4-tetrahydroisoquinolin-7-yl)-7-oxo-4,5,6,7-tetrahydro-1H-pyrazolo[3,4-c]pyridine-3-carboxamide]
FXa
  IC50: > 40 µM
Thrombin
  IC50: > 40 µM
[1]
  IC50: 3 to 10 µM
